Results published in patent US12187713B2, “Immunomodulators, compositions and methods thereof” (Betta Pharmaceuticals Co., Ltd, priority 2019, dated 2025).

Columns and labels:
[1] = Pharmacokinetic Assay, single oral dose 5 mg/kg (Table 12); assay type: in vivo; settings: mouse, plasma concentration, C57 female mice, single oral dose 5 mg/kg
Procedure: Adult C57 female mice were received to single-dose of the test compounds with 15% DMSO, 10% Kolliphor^@HS 15 and 75% saline as excipients, the mice (n=3) were giving oral administration (intragastric administration) with the compounds at a dose of 5 mg/kg. Time of blood collection: 30 min, 2 h, 4 h. approximately 0.1 mL of whole blood was collected from retro-orbital venous plexus, and placed into tubes that contained K2-EDTA as an anticoagulant. The whole blood were centrifuged at 4° C. and 4000 rpm for 10 min. The plasma was transferred into centrifuge tubes, and stored at −20° C. until being analyzed. Concentrations of test compounds in the plasma samples were analyzed with liquid chromatography-tandem mass spectrometry (LC-MS/MS). Plasma concentration-time data of individual animals was analyzed using Microsoft Excel 2010.

[2] = molecular target: PD-1/PD-L1 (Homo sapiens (Human), UniProt Q9NZQ7); experiment: PD-1/PD-L1 Binding Assay (Alphascreen)
Sequence of PD-1/PD-L1 (Q9NZQ7 19-238): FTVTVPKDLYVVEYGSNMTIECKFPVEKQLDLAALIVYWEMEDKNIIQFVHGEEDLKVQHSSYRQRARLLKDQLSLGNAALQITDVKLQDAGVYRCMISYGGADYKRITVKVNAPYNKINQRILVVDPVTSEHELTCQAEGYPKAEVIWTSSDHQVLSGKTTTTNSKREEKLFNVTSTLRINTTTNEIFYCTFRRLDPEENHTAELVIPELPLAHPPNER
In short: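 PD-1/PD-L1 binding detected by anti-6×His acceptor and streptavidin donor beads after 120 min in the dark at 25 °C. Beforehand, the two proteins were incubated 15 min at 25 °C with inhibitor at 0.015–300 nM (1% DMSO). IC50 comes from a log concentration–response curve.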

Structure (SMILES) | concentration at 0.5 h [1] | concentration at 2 h [1] | concentration at 4 h [1] | IC50 ([2]; numeric values) | IC50 ([2]; range symbols)
Cc1c(-c2nc3cc(CN4CCC[C@H]4C(=O)O)c(OC(F)F)cc3o2)cccc1-c1cccc(-c2nc3cc(CN4[C@H]5CC[C@@H]4CC5)c(OC(F)F)cc3o2)c1C [Example 72, ((2-(3′-(5-(((1s,4s)-7-azabicyclo[2.2.1]heptan-7-yl)methyl)-6-(difluoromethoxy)benzo[d]oxazol-2-yl)-2,2′-dimethyl-[1,1′-biphenyl]-3-yl)-6-(difluoromethoxy)benzo[d]oxazol-5-yl)methyl)-L-proline] | 42.6 ng/mL | 140 ng/mL | 132 ng/mL | 0.98 nM | 
Cc1c(-c2nc3cc(CN4CC(C)C4)c(OC(F)F)cc3o2)cccc1-c1cccc(-c2nc3cc(CN4CCC[C@H]4C(=O)O)c(OC(F)F)cc3o2)c1C [Example 56, ((6-(difluoromethoxy)-2-(3′-(6-(difluoromethoxy)-5-((3-methylazetidin-1-yl)methyl)benzo[d]oxazol-2-yl)-2,2′-dimethyl-[1,1′-biphenyl]-3-yl)benzo[d]oxazol-5-yl)methyl)-L-proline] | 19.9 ng/mL | 192 ng/mL | 155 ng/mL | 0.83 nM | 
Cc1c(-c2nc3cc(CN4CCC[C@H]4C(=O)O)c(OC(F)F)cc3o2)cccc1-c1cccc(-c2nc3cc(CN4CCCC4)c(C(F)(F)F)cc3o2)c1C [Example 101, ((6-(difluoromethoxy)-2-(2,2′-dimethyl-3′-(5-(pyrrolidin-1-ylmethyl)-6-(trifluoromethyl)benzo[d]oxazol-2-yl)-[1,1′-biphenyl]-3-yl)benzo[d]oxazol-5-yl)methyl)-L-proline] | 178 ng/mL | 640 ng/mL | 579 ng/mL | 2.2 nM | 
Cc1c(-c2ccc(CN3CC(C)(C)C3)c(F)c2)cccc1-c1cccc(-c2nc3cc(CN4CCC[C@H]4C(=O)O)c(OC(F)F)cc3o2)c1C [Example 237, ((6-(difluoromethoxy)-2-(4″-((3,3-dimethylazetidin-1-yl)methyl)-3″-fluoro-2,2′-dimethyl-[1,1′:3′,1″-terphenyl]-3-yl)benzo[d]oxazol-5-yl)methyl)-L-proline] | 58.5 ng/mL | 178 ng/mL | 186 ng/mL | 2.7 nM | 
Cc1c(-c2nc3c(o2)CCN(CC#N)C3)cccc1-c1cccc(-c2nc3cc(CN4CCC[C@H]4C(=O)O)c(OC(F)F)cc3o2)c1C [Example 195, ((2-(3′-(5-(cyanomethyl)-4,5,6,7-tetrahydrooxazolo[4,5-c]pyridin-2-yl)-2,2′-dimethyl-[1,1′-biphenyl]-3-yl)-6-(difluoromethoxy)benzo[d]oxazol-5-yl)methyl)proline] | 256 ng/mL | 255 ng/mL | 125 ng/mL |  | 5 to 50 nM
Cc1c(-c2nc3cc(CN4CCC[C@H]4C(=O)O)c(OC(F)F)cc3o2)cccc1-c1cccc(-c2nc3cc(CN4CCCC4)cc(C#N)c3o2)c1C [Example 127, ((2-(3′-(7-cyano-5-(pyrrolidin-1-ylmethyl)benzo[d]oxazol-2-yl)-2,2′-dimethyl-[1,1′-biphenyl]-3-yl)-6-(difluoromethoxy)benzo[d]oxazol-5-yl)methyl)-L-proline] | 61.3 ng/mL | 253 ng/mL | 216 ng/mL | 3.1 nM | 
COc1nc(-c2cccc(-c3cccc(-c4nc5cc(CN6CCC[C@H]6C(=O)O)c(OC(F)F)cc5o4)c3C)c2C)cnc1CN1CC[C@@H](C)C1 [Example 286, ((6-(difluoromethoxy)-2-(3′-(6-methoxy-5-(((R)-3-methylpyrrolidin-1-yl)methyl)pyrazin-2-yl)-2,2′-dimethyl-[1,1′-biphenyl]-3-yl)benzo[d]oxazol-5-yl)methyl)-L-proline] | 20.5 ng/mL | 73.8 ng/mL | 52.2 ng/mL |  | 0.1 to 5 nM
COc1nc(-c2cccc(-c3cccc(-c4nc5cc(CN6CCC[C@H]6C(=O)O)c(OC(F)F)cc5o4)c3C)c2C)cnc1CN1CCCC1 [Example 285, ((6-(difluoromethoxy)-2-(3′-(6-methoxy-5-(pyrrolidin-1-ylmethyl)pyrazin-2-yl)-2,2′-dimethyl-[1,1′-biphenyl]-3-yl)benzo[d]oxazol-5-yl)methyl)-L-proline] | 39.1 ng/mL | 80 ng/mL | 41.8 ng/mL |  | 0.1 to 5 nM
Cc1c(-c2ccc(CN3CC[C@H](COCc4ccccc4)C3)c(F)c2)cccc1-c1cccc(-c2nc3cc(CN4CCC[C@H]4C(=O)O)c(OC(F)F)cc3o2)c1C [Example 252, ((2-(4″-(((S)-3-((benzyloxy)methyl)pyrrolidin-1-yl)methyl)-3″-fluoro-2,2′-dimethyl-[1,1′:3′,1″- terphenyl]-3-yl)-6-(difluoromethoxy)benzo[d]oxazol-5-yl)methyl)proline] | 694 ng/mL | 2870 ng/mL | 4150 ng/mL |  | 0.1 to 5 nM
Cc1c(-c2nc3c(o2)CCN(CCCC(F)(F)F)C3)cccc1-c1cccc(-c2nc3cc(CN4CCC[C@H]4C(=O)O)c(OC(F)F)cc3o2)c1C [Example 191, ((6-(difluoromethoxy)-2-(2,2′-dimethyl-3′-(5-(4,4,4-trifluorobutyl)-4,5,6,7-tetrahydrooxazolo[4,5-c]pyridin-2-yl)-[1,1′-biphenyl]-3-yl)benzo[d]oxazol-5-yl)methyl)proline] | 520 ng/mL | 1170 ng/mL | 1330 ng/mL |  | 5 to 50 nM
Cc1c(-c2nc3cc(CN4C[C@@H](F)[C@H](F)C4)c(OC(F)F)cc3o2)cccc1-c1cccc(-c2nc3cc(CN4CCC[C@H]4C(=O)O)c(OC(F)F)cc3o2)c1C [Example 18, ((6-(difluoromethoxy)-2-(3′-(6-(difluoromethoxy)-5-(((3R,4R)-3,4-difluoropyrrolidin-1-yl)methyl)benzo[d]oxazol-2-yl)-2,2′-dimethyl-[1,1′-biphenyl]-3-yl)benzo[d]oxazol-5-yl)methyl)-L-proline] | 303 ng/mL | 642 ng/mL | 626 ng/mL | 164 nM | 
Cc1c(-c2nc3cc(CN4CCN(C)C(C)C4)c(OC(F)F)cc3o2)cccc1-c1cccc(-c2nc3cc(CN4CCC[C@H]4C(=O)O)c(OC(F)F)cc3o2)c1C (stereo partly drawn) [Example 23, ((6-(difluoromethoxy)-2-(3′-(6-(difluoromethoxy)-5-((3,4-dimethylpiperazin-1-yl)methyl)benzo[d]oxazol-2-yl)-2,2′-dimethyl-[1,1′-biphenyl]-3-yl)benzo[d]oxazol-5-yl)methyl)-L-proline] | 46.2 ng/mL | 148 ng/mL | 94.7 ng/mL | 7.7 nM | 
Cc1c(-c2nc3c(o2)CCCC3)cccc1-c1cccc(-c2nc3cc(CN4CCC[C@H]4C(=O)O)c(OC(F)F)cc3o2)c1C [Example 205, ((6-(difluoromethoxy)-2-(2,2′-dimethyl-3′-(4,5,6,7-tetrahydrobenzo[d]oxazol-2-yl)-[1,1′-biphenyl]-3-yl)benzo[d]oxazol-5-yl)methyl)proline] | 1000 ng/mL | 1440 ng/mL | 1420 ng/mL |  | 0.1 to 5 nM
Cc1c(-c2nc3cc(CN4CCC[C@H]4C(=O)O)c(OC(F)F)cc3o2)cccc1-c1cccc(-c2ccc(CN3CCCC3)cc2F)c1C [Example 253, ((6-(difluoromethoxy)-2-(2″-fluoro-2,2′-dimethyl-4″-(pyrrolidin-1-ylmethyl)-[1,1′:3′,1″- terphenyl]-3-yl)benzo[d]oxazol-5-yl)methyl)-L-proline] | 42.3 ng/mL | 199 ng/mL | 181 ng/mL | 4.7 nM | 
C#CC1(O)CN(Cc2cc(C#N)c3oc(-c4cccc(-c5cccc(-c6nc7cc(CN8CCC[C@H]8C(=O)O)c(OC(F)F)cc7o6)c5C)c4C)nc3c2)C1 [Example 144, ((2-(3′-(7-cyano-5-((3-ethynyl-3-hydroxyazetidin-1-yl)methyl)benzo[d]oxazol-2-yl)-2,2′-dimethyl-[1,1′-biphenyl]-3-yl)-6-(difluoromethoxy)benzo[d]oxazol-5-yl)methyl)-L-proline] | 243 ng/mL | 386 ng/mL | 222 ng/mL |  | 0.1 to 5 nM
CCS(=O)(=O)N1CCc2oc(-c3cccc(-c4cccc(-c5nc6cc(CN7CCC[C@H]7C(=O)O)c(OC(F)F)cc6o5)c4C)c3C)nc2C1 [Example 197, ((6-(difluoromethoxy)-2-(3′-(5-(ethylsulfonyl)-4,5,6,7-tetrahydrooxazolo[4,5-c]pyridin-2-yl)-2,2′-dimethyl-[1,1′-biphenyl]-3-yl)benzo[d]oxazol-5-yl)methyl)proline] | 527 ng/mL | 741 ng/mL | 369 ng/mL |  | 5 to 50 nM
Cc1c(-c2nc3cc(CN4CCCC4)c(OC(F)F)cc3o2)cccc1-c1cccc(-c2nc3cc(CN4CCC[C@@H]4C(=O)O)c(OC(F)F)cc3o2)c1C [Example 66, ((6-(difluoromethoxy)-2-(3′-(6-(difluoromethoxy)-5-(pyrrolidin-1-ylmethyl)benzo[d]oxazol-2-yl)-2,2′-dimethyl-[1,1′-biphenyl]-3-yl)benzo[d]oxazol-5-yl)methyl)-D-proline] |  | 137 ng/mL | 111 ng/mL | 1.8 nM | 
